Data: US9695155B2, “Herbicidal substituted pyrimidinyloxy benzene compounds” (E. I. DU PONT DE NEMOURS AND COMPANY, priority 2013, dated 2017)

Tests used:
ragweed [1] = assay: Test C postemergence; format: in vivo, Ambrosia elatior
In short: (§1)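 Whole-plant greenhouse test with surfactant-containing solvent formulation, applied preemergence to sown loam–sand pots or postemergence to 2–18 cm plants. Scored by eye 13 to 15 days on, 0–100 scale.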

giant foxtail [2] = assay: Test C postemergence; format: in vivo, Setaria faberii; details: Setaria faberi, post-emergence
In short: as §1

pigweed [3] = assay: Test A postemergence; format: in vivo, Amaranthus retroflexus; details: Amaranthus retroflexus, post-emergence, 0 to 100 scale where 0 is no effect and 100 is complete control
In short: (§2)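 Injury scores run from 0, no effect, to 100, complete control, judged by eye against untreated plants roughly 10 days after treatment. Chemicals carried a surfactant in a non-phytotoxic solvent and went onto loam–sand soil preemergence or onto one- to two-leaf seedlings postemergence.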

soybean = assay: Test C postemergence; format: in vivo, Glycine max
In short: as §1

lambsquarters [4] = assay: Test C preemergence; format: in vivo, Chenopodium album; details: Chenopodium album, pre-emergence, preemergence, read-out: Lambsquarters plant response rating
In short: as §1

giant foxtail [5] = assay: Test A postemergence; format: in vivo, Setaria faberii; details: Setaria faberi, post-emergence, 240 h, 0 to 100 scale where 0 is no effect and 100 is complete control
In short: as §2

corn [6] = assay: Test C preemergence; format: in vivo, Zea mays; details: Zea mays, pre-emergence
In short: as §1

wheat = assay: Test A preemergence; format: in vivo, Triticum aestivum
In short: as §2

large (Lg) crabgrass = assay: Test C postemergence; format: in vivo, Digitaria sanguinalis; details: Digitaria sanguinalis, post-emergence
In short: as §1

ragweed [7] = assay: Test C preemergence; format: in vivo, Ambrosia elatior; details: Ambrosia artemisiifolia, pre-emergence, preemergence, read-out: Ragweed plant response rating
In short: as §1

galium = assay: Test C preemergence; format: in vivo, Galium aparine; details: Galium, pre-emergence
In short: as §1

velvetleaf = assay: Test C preemergence; format: in vivo, Abutilon theophrasti; details: Abutilon theophrasti, pre-emergence, preemergence, read-out: Velvetleaf plant response rating
In short: as §1

pigweed [8] = assay: Test C postemergence; format: in vivo, Amaranthus retroflexus
In short: as §1

morningglory [9] = assay: Test C preemergence; format: in vivo, Ipomoea coccinea; details: Ipomoea, pre-emergence, preemergence, read-out: Morningglory plant response rating
In short: as §1

corn [10] = assay: Test A postemergence; format: in vivo, Zea mays; details: Zea mays, post-emergence, 240 h, 0 to 100 scale where 0 is no effect and 100 is complete control
In short: as §2

lambsquarters [11] = assay: Test C postemergence; format: in vivo, Chenopodium album
In short: as §1

waterhemp = assay: Test C postemergence; format: in vivo, Amaranthus rudis
In short: as §1

morningglory [12] = assay: Test C postemergence; format: in vivo, Ipomoea coccinea
In short: as §1

[13] = 31 g ai/ha, postemergence, visual rating, scale 0 to 100 (0 no effect, 100 complete control), 13 to 15 days
[14] = 16 g ai/ha, scale 0 to 100 (0 no effect, 100 complete control)
[15] = 62 g ai/ha, scale 0 (no effect) to 100 (complete control)
[16] = 125 g ai/ha, scale 0 (no effect) to 100 (complete control)

FC(F)(F)c1cn(-c2ccccc2Oc2ncc(Cl)cn2)nn1 [Compound 166, 5-chloro-2-[2-[4-(trifluoromethyl)-1H-1,2,3-triazol-1-yl]phenoxy]pyrimidine]
Ragweed plant response rating (ragweed [1]; [13]): 45
pest or weed control at 16 g/ha (ragweed [1]; Ambrosia artemisiifolia, post-emergence, 16 g ai/ha, postemergence, 0 is no effect, 100 is complete control, read-out: Plant response rating (0 to 100), Ragweed): 35%
pest or weed control at 125 g/ha (ragweed [1]; Ambrosia artemisiifolia, post-emergence, 125 g ai/ha, postemergence, visual rating, scale 0 to 100 (0 no effect, 100 complete control), read-out: Plant response rating, Ragweed): 80%
pest or weed control at 62 g/ha (ragweed [1]; Ambrosia artemisiifolia, post-emergence, Postemergence, 62 g ai/ha, scale 0 to 100 (0 no effect, 100 complete control), read-out: Plant response rating, Ragweed): 60%
pest or weed control at 16 g/ha (giant foxtail [2]; 16 g ai/ha, postemergence, 0 is no effect, 100 is complete control, read-out: Plant response rating (0 to 100), Foxtail, Giant): 5%
pest or weed control at 31 g/ha (giant foxtail [2]; 31 g ai/ha, postemergence, visual rating, scale 0 to 100 (0 no effect, 100 complete control), 13 to 15 days, read-out: Foxtail, Giant plant response rating): 5%
pest or weed control at 125 g/ha (giant foxtail [2]; 125 g ai/ha, postemergence, visual rating, scale 0 to 100 (0 no effect, 100 complete control), read-out: Plant response rating, Foxtail, Giant): 35%
pest or weed control at 62 g/ha (giant foxtail [2]; Postemergence, 62 g ai/ha, scale 0 to 100 (0 no effect, 100 complete control), read-out: Plant response rating, Foxtail, Giant): 10%
pest or weed control at 500 g/ha (pigweed [3]; 500 g ai/ha, read-out: Plant response rating, Pigweed): 100%
pest or weed control at 125 g/ha (pigweed [3]; 240 h, 125 g ai/ha, read-out: Pigweed plant response rating): 100%
Soybean plant response rating (soybean; [13]): 95
Soybean plant response rating (crop injury, 0-100 scale) at 16 g/ha (soybean; Glycine max, post-emergence, 16 g ai/ha, postemergence, 0 is no effect, 100 is complete control): 40%
Soybean plant response rating (crop injury, 0-100 scale) at 125 g/ha (soybean; Glycine max, post-emergence, 125 g ai/ha, postemergence, visual rating, scale 0 to 100 (0 no effect, 100 complete control), read-out: Plant response rating, Soybean): 95%
Soybean plant response rating (crop injury, 0-100 scale) at 62 g/ha (soybean; Glycine max, post-emergence, Postemergence, 62 g ai/ha, scale 0 to 100 (0 no effect, 100 complete control)): 90%
pest or weed control at 16 g/ha (lambsquarters [4]; [14]): 90%
pest or weed control at 62 g/ha (lambsquarters [4]; [15]): 98%
pest or weed control at 125 g/ha (lambsquarters [4]; [16]): 98%
pest or weed control at 125 g/ha (giant foxtail [5]; 125 g ai/ha, read-out: Foxtail, Giant plant response rating): 90%
pest or weed control at 500 g/ha (giant foxtail [5]; 500 g ai/ha, read-out: Plant response rating, Foxtail, Giant): 90%
plant injury at 16 g/ha (corn [6]; 16 g ai/ha, preemergence, scale 0 to 100 (0 no effect, 100 complete control), read-out: Corn plant response rating): 0%
plant injury at 62 g/ha (corn [6]; 62 g ai/ha, preemergence, scale 0 (no effect) to 100 (complete control), read-out: Corn plant response rating): 40%
plant injury at 125 g/ha (corn [6]; 125 g ai/ha, preemergence, scale 0 (no effect) to 100 (complete control), read-out: Corn plant response rating): 80%
Corn plant response rating (crop injury, 0 = no effect, 100 = complete kill) at 31 g/ha (corn [6]; Preemergence, 31 g ai/ha, scale 0 to 100, 0 no effect, 100 complete control): 25%
Wheat plant response rating (0 to 100 scale) (wheat; 125 g ai/ha): 50
plant injury at 500 g/ha (wheat; Triticum aestivum, pre-emergence, 240 h, 500 g ai/ha, 0 to 100 scale where 0 is no effect and 100 is complete control, read-out: Wheat plant response rating): 80%
pest or weed control at 16 g/ha (large (Lg) crabgrass; 16 g ai/ha, postemergence, 0 is no effect, 100 is complete control, read-out: Plant response rating (0 to 100), Crabgrass, Large): 5%
pest or weed control at 31 g/ha (large (Lg) crabgrass; 31 g ai/ha, postemergence, visual rating, scale 0 to 100 (0 no effect, 100 complete control), 13 to 15 days, read-out: Crabgrass, Large plant response rating): 5%
pest or weed control at 125 g/ha (large (Lg) crabgrass; 125 g ai/ha, postemergence, visual rating, scale 0 to 100 (0 no effect, 100 complete control), read-out: Plant response rating, Crabgrass, Large): 15%
pest or weed control at 62 g/ha (large (Lg) crabgrass; Postemergence, 62 g ai/ha, scale 0 to 100 (0 no effect, 100 complete control), read-out: Plant response rating, Crabgrass, Large): 10%
pest or weed control at 16 g/ha (ragweed [7]; [14]): 50%
pest or weed control at 62 g/ha (ragweed [7]; [15]): 95%
pest or weed control at 125 g/ha (ragweed [7]; [16]): 95%
pest or weed control at 16 g/ha (galium; 16 g ai/ha, preemergence, scale 0 to 100 (0 no effect, 100 complete control), read-out: Galium plant response rating): 98%
pest or weed control at 62 g/ha (galium; 62 g ai/ha, preemergence, scale 0 (no effect) to 100 (complete control), read-out: Galium plant response rating): 95%
pest or weed control at 125 g/ha (galium; 125 g ai/ha, preemergence, scale 0 (no effect) to 100 (complete control), read-out: Galium plant response rating): 95%
pest or weed control at 31 g/ha (galium; Preemergence, 31 g ai/ha, scale 0 to 100, 0 no effect, 100 complete control, read-out: Plant response rating, Galium): 100%
pest or weed control at 16 g/ha (velvetleaf; [14]): 80%
pest or weed control at 62 g/ha (velvetleaf; [15]): 100%
pest or weed control at 125 g/ha (velvetleaf; [16]): 100%
Pigweed plant response rating (pigweed [8]; [13]): 85
pest or weed control at 16 g/ha (pigweed [8]; Amaranthus retroflexus, post-emergence, 16 g ai/ha, postemergence, 0 is no effect, 100 is complete control, read-out: Plant response rating (0 to 100), Pigweed): 80%
pest or weed control at 125 g/ha (pigweed [8]; Amaranthus retroflexus, post-emergence, 125 g ai/ha, postemergence, visual rating, scale 0 to 100 (0 no effect, 100 complete control), read-out: Plant response rating, Pigweed): 98%
pest or weed control at 62 g/ha (pigweed [8]; Amaranthus retroflexus, post-emergence, Postemergence, 62 g ai/ha, scale 0 to 100 (0 no effect, 100 complete control), read-out: Plant response rating, Pigweed): 90%
pest or weed control at 16 g/ha (morningglory [9]; [14]): 15%
pest or weed control at 62 g/ha (morningglory [9]; [15]): 98%
pest or weed control at 125 g/ha (morningglory [9]; [16]): 100%
plant injury at 125 g/ha (corn [10]; 125 g ai/ha, read-out: Corn plant response rating): 50%
Corn plant response rating (crop injury, 0 = no effect, 100 = complete kill) at 500 g/ha (corn [10]; 500 g ai/ha): 60%
Lambsquarters plant response rating (lambsquarters [11]; [13]): 80
pest or weed control at 16 g/ha (lambsquarters [11]; Chenopodium album, post-emergence, 16 g ai/ha, postemergence, 0 is no effect, 100 is complete control, read-out: Plant response rating (0 to 100), Lambsquarters): 40%
pest or weed control at 125 g/ha (lambsquarters [11]; Chenopodium album, post-emergence, 125 g ai/ha, postemergence, visual rating, scale 0 to 100 (0 no effect, 100 complete control), read-out: Plant response rating, Lambsquarters): 98%
pest or weed control at 62 g/ha (lambsquarters [11]; Chenopodium album, post-emergence, Postemergence, 62 g ai/ha, scale 0 to 100 (0 no effect, 100 complete control), read-out: Plant response rating, Lambsquarters): 95%
Waterhemp plant response rating (waterhemp; [13]): 85
pest or weed control at 16 g/ha (waterhemp; Amaranthus tuberculatus, post-emergence, 16 g ai/ha, postemergence, 0 is no effect, 100 is complete control, read-out: Plant response rating (0 to 100), Waterhemp): 75%
pest or weed control at 125 g/ha (waterhemp; Amaranthus tuberculatus, post-emergence, 125 g ai/ha, postemergence, visual rating, scale 0 to 100 (0 no effect, 100 complete control), read-out: Plant response rating, Waterhemp): 90%
pest or weed control at 62 g/ha (waterhemp; Amaranthus tuberculatus, post-emergence, Postemergence, 62 g ai/ha, scale 0 to 100 (0 no effect, 100 complete control), read-out: Plant response rating, Waterhemp): 90%
Morningglory plant response rating (morningglory [12]; [13]): 70
pest or weed control at 16 g/ha (morningglory [12]; Ipomoea, post-emergence, 16 g ai/ha, postemergence, 0 is no effect, 100 is complete control, read-out: Plant response rating (0 to 100), Morningglory): 85%
pest or weed control at 125 g/ha (morningglory [12]; Ipomoea, post-emergence, 125 g ai/ha, postemergence, visual rating, scale 0 to 100 (0 no effect, 100 complete control), read-out: Plant response rating, Morningglory): 95%
pest or weed control at 62 g/ha (morningglory [12]; Ipomoea, post-emergence, Postemergence, 62 g ai/ha, scale 0 to 100 (0 no effect, 100 complete control), read-out: Plant response rating, Morningglory): 85%
